# In paper PMC12589998, “Development and validation of a UHPLC-QqQ-MS/MS method for simultaneous determination of fifteen major components from Oroxyli seed extract in rat plasma and its application in the pharmacokinetic study” (Frontiers in Pharmacology, 2025):
# “Also recorded” adds a separate entry of the source. Read-outs that look alike come from different tables or passages of the source.
# Experiments:
# [1] = Pharmacokinetic study in rats after oral administration of OS extract (UHPLC-QqQ-MS/MS of plasma); type: in vivo, rat; settings: for concentration at 0.5 h: SD, 3 g/kg, rat plasma collected 0.5 h after oral administration of the OS extract, read-out: Concentration printed in MRM chromatogram of plasma sample (Figure 2C); for Tmax: read-out: Tmax
# Experimental: The UHPLC-QqQ-MS/MS system consisted of a 1290 UHPLC and a 6470 mass spectrometer (Agilent Technologies). Chromatographic separation was realized on utilizing an ACQUITY UPLC BEH C18 column (2.1 × 100 mm, 1.7 μm) maintained at 35 °C. The mobile phase consisting of 0.1% formic acid in water (A) and acetonitrile (B) was utilized with the elution program set at 0 min–1 min, 5% B–30% B; 1 min–4 min, 30% B– 50% B; 4 min–8 min, and 50% B–90% B. The injection volume was 5 μL, and the flow rate was 0.3 mL/min. The mass spectrometry parameters in the negative ion mode, gas temperature, flow rate, and nebulizer pressure were 300 °C, 7 L/min, and 35 psi, respectively. The mass spectra properties of the 15 analytes and the IS are illustrated in Table 1.
# To 100 μL of the plasma sample, 20 μL of methanol, 20 μL of IS solution (methylparaben, 1 μg/mL), and 5 μL of formic acid were added and vortexed for a duration of 2 min. Subsequently, the mixture underwent extraction with 800 μL of acetonitrile for 3 min. Following 10 min of centrifugation at 12,000 g, the supernatant was collected and evaporated to dryness under N2 to obtain the residue. Finally, the residue was reconstituted in 50% methanol (100 μL) and utilized for analysis.
# Before initiating the study, six male SD rats underwent a 12-h fasting period, during which they were granted unrestricted access to water. Then, the rats were administered an oral dose of 3 g/kg of the OS extract, which had been dissolved in 0.5% CMC-Na aqueous solution. Blood samples, approximately 200 μL each, were collected at various time points: before administration and at 0.03, 0.08, 0.17, 0.25, 0.5, 0.75, 1, 2, 4, 6, 8, 10, 12, 24, 36, and 48 h post-administration. Following 10 min of centrifugation at 6,000 g, the resultant samples were stored at −80 °C.
# The developed method was effectively applied to study the pharmacokinetics in rats following oral administration of the OS extract. […] This was likely due to their low concentrations in the OS extract. Ultimately, nine components (chrysin, chrysin-7-O-β-D-glucuronide, baicalin, baicalein, oroxin A, oroxin B, oroxylin A, oroxylin A-7-O-β-D-glucuronide, and scutellarein) were successfully fitted with pharmacokinetic parameters. The average plasma concentration–time profiles of these substances are depicted in Figure 3. […] All data were presented as the mean ± standard deviation (Mean ± SD).
# [2] = Stability of the analytes in rat plasma samples under storage conditions; type: physicochemical; settings: n = 6
# Experimental: The bioanalytical method validation was evaluated for specificity, linearity, sensitivity, precision and accuracy, recovery, matrix effect, and stability to ensure compliance with the U.S. Food and Drug Administration (FDA) guidance on precise quantitative analysis ([Center for Drug Evaluation and Research of the U.S., 2018]). The assessment of specificity was conducted by comparing the chromatograms obtained from blank plasma, blank plasma spiked with the target components, and samples gathered following the oral administration of OS extract. Calibration curves were constructed by plotting the ratio for the peak area of the analyte to IS versus the concentration, with 1/x^2 serving as the weighting factor. The lower limit of quantification (LLOQ) was defined as the concentration at which a signal to noise ratio of […] 10 was achievable. The evaluation of precision and accuracy involved the analysis of six QC samples, both within a single day and over 3 consecutive days. Accuracy was expressed as the relative error (RE), whereas precision was gauged via relative standard deviation (RSD). Extraction recovery was ascertained by juxtaposing the responses of analytes in extracted samples against those in samples that were spiked post-extraction. The matrix effect was scrutinized by determining the ratio of the responses of the analytes in post-extraction spiked samples to those in the mixed standard solution. The stability of the analytes in plasma samples was explored under diverse conditions: encompassing a 12-h period in an autosampler, a 4-h interval at room temperature, three cycles of freezing–thawing, and a 7-day duration at −80 °C.
# The retention times of the analyte peaks were consistent with those in the spiked samples. […] The LLOQs for chrysin, chrysin-7-O-β-D-glucuronide, hispidulin, wogonoside, quercetin, quercetin-7-O-β-D-glucoside, baicalin, baicalein, acacetin, oroxin A, oroxin B, oroxylin A, oroxylin A-7-O-β-D-glucuronide, apigenin, and scutellarein were 1.0, 2.0, 1.0, 0.3, 1.0, 0.1, 9.0, 6.0, 0.3, 6.0, 4.0, 1.0, 2.0, 0.5, and 0.3 ng/mL, respectively. In Supplementary Table S2, the RE for accuracy is between −13.77% and 12.55%, and the RSD for precision is below 14.55% (both intra- and inter-day). […] The matrix effect varied from 60.15% to 115.53%, with RSD values below 10.54%. In Supplementary Table S4, the RSD values for stability of the analytes are found to be lower than 13.98%, meaning that these components were stable under the following conditions: encompassing a 12-h period in an autosampler, a 4-h interval at room temperature, three cycles of freezing and thawing, and a 7-day duration at −80 °C.
# [3] = male, rat plasma, oral 3 g/kg OS extract, n = 6, mean ± SD
# [4] = rat plasma after oral OS extract
# [5] = spiked concentration 2000 ng/mL
# [6] = spiked concentration 32000 ng/mL
"Tmax [1, 3] [h]",SMILES,concentration at 0.5 h ([1]; male) [ng/mL],"Plasma levels [1, 4]","Measured, -80°C for 7 days ([2]; spiked concentration 2 ng/mL) [ng/mL]","Measured, Autosampler for 12 h ([2]; spiked concentration 2 ng/mL) [ng/mL]","Measured, Room temperature for 4 h ([2]; spiked concentration 2 ng/mL) [ng/mL]","Measured, Three freeze-thaw cycles ([2]; spiked concentration 2 ng/mL) [ng/mL]","Measured, -80°C for 7 days ([2]; spiked concentration 20 ng/mL) [ng/mL]","Measured, Autosampler for 12 h ([2]; spiked concentration 20 ng/mL) [ng/mL]","Measured, Room temperature for 4 h ([2]; spiked concentration 20 ng/mL) [ng/mL]","Measured, Three freeze-thaw cycles ([2]; spiked concentration 20 ng/mL) [ng/mL]","Measured, -80°C for 7 days ([2]; spiked concentration 320 ng/mL) [ng/mL]","Measured, Autosampler for 12 h ([2]; spiked concentration 320 ng/mL) [ng/mL]","Measured, Room temperature for 4 h ([2]; spiked concentration 320 ng/mL) [ng/mL]","Measured, Three freeze-thaw cycles ([2]; spiked concentration 320 ng/mL) [ng/mL]",also measured
–,"O=c1c(O)c(-c2ccc(O)c(O)c2)oc2cc(O[C@@H]3O[C@H](CO)[C@@H](O)[C@H](O)[C@H]3O)cc(O)c12 [Quercetin-7-O-β-D-glucoside, quercetin-7-O-β-D-glucoside]",8,too weak to obtain comprehensive pharmacokinetic curves,1.96 ± 0.23,2.10 ± 0.15,1.98 ± 0.24,2.03 ± 0.10,19.58 ± 0.68,19.79 ± 2.27,20.28 ± 1.69,17.78 ± 1.17,296.81 ± 20.76,320.27 ± 20.06,315.81 ± 25.77,326.98 ± 27.26,–
~10,"O=c1c(O)c(-c2ccc(O)c(O)c2)oc2cc(O)cc(O)c12 [Quercetin, quercetin]",26,too weak to obtain comprehensive pharmacokinetic curves,1.81 ± 0.12,1.90 ± 0.21,1.80 ± 0.22,1.80 ± 0.09,17.37 ± 0.79,17.83 ± 1.42,19.06 ± 1.54,20.46 ± 0.77,285.05 ± 20.53,325.17 ± 28.70,298.43 ± 22.04,288.07 ± 26.80,–
~10,OCc1ccccc1O[C@@H]1O[C@H](CO)[C@@H](O)[C@H](O)[C@H]1O [salicin],–,–,–,–,–,–,–,–,–,–,–,–,–,–,–

SMILES,"Tmax [1, 3] [h]",concentration at 0.5 h ([1]; male) [ng/mL],"Plasma levels [1, 4]","Measured, -80°C for 7 days ([2]; spiked concentration 2 ng/mL) [ng/mL]","Measured, Autosampler for 12 h ([2]; spiked concentration 2 ng/mL) [ng/mL]","Measured, Room temperature for 4 h ([2]; spiked concentration 2 ng/mL) [ng/mL]","Measured, Three freeze-thaw cycles ([2]; spiked concentration 2 ng/mL) [ng/mL]","Measured, -80°C for 7 days ([2]; spiked concentration 20 ng/mL) [ng/mL]","Measured, Autosampler for 12 h ([2]; spiked concentration 20 ng/mL) [ng/mL]","Measured, Room temperature for 4 h ([2]; spiked concentration 20 ng/mL) [ng/mL]","Measured, Three freeze-thaw cycles ([2]; spiked concentration 20 ng/mL) [ng/mL]","Measured, -80°C for 7 days ([2]; spiked concentration 320 ng/mL) [ng/mL]","Measured, Autosampler for 12 h ([2]; spiked concentration 320 ng/mL) [ng/mL]","Measured, Room temperature for 4 h ([2]; spiked concentration 320 ng/mL) [ng/mL]","Measured, Three freeze-thaw cycles ([2]; spiked concentration 320 ng/mL) [ng/mL]",also measured
"O=C(O)[C@H]1O[C@@H](Oc2cc3oc(-c4ccccc4)cc(=O)c3c(O)c2O)[C@H](O)[C@@H](O)[C@@H]1O [Baicalin, baicalin]",0.67 ± 0.13,10400,–,–,–,–,–,–,–,–,–,–,–,–,–,"AUC(0-t) ([1]; male, rat plasma, oral 3 g/kg OS extract, n = 6, mean ± SD, read-out: AUC(0-t)): 257 µg·h/mL; AUC(0-inf) ([1]; male, rat plasma, oral 3 g/kg OS extract, n = 6, mean ± SD, read-out: AUC(0-∞)): 264 µg·h/mL; Cmax ([1]; male, rat plasma, oral 3 g/kg OS extract, n = 6, mean ± SD, read-out: Cmax): 13400 ng/mL; half-life ([1]; male, rat plasma, oral 3 g/kg OS extract, n = 6, mean ± SD, read-out: T1/2 (converted)): 9.14 ± 1.15 h; Shape of plasma concentration-time curve [1, 4]: significant bimodal phenomena; also recorded: clear bimodal phenomena; AUC(0-t) ([1]; rat plasma, oral 3 g/kg OS extract, n = 6, mean ± SD): significantly higher than that of the others; Measured, -80°C for 7 days ([2]; spiked concentration 200 ng/mL): 196.55 ± 6.22 ng/mL; Measured, Autosampler for 12 h ([2]; spiked concentration 200 ng/mL): 197.37 ± 12.83 ng/mL; Measured, Room temperature for 4 h ([2]; spiked concentration 200 ng/mL): 197.18 ± 11.27 ng/mL; Measured, Three freeze-thaw cycles ([2]; spiked concentration 200 ng/mL): 191.59 ± 7.20 ng/mL; Measured, -80°C for 7 days [2, 5]: 2100.51 ± 51.69 ng/mL; Measured, Autosampler for 12 h [2, 5]: 1919.30 ± 46.13 ng/mL; Measured, Room temperature for 4 h [2, 5]: 2105.21 ± 73.11 ng/mL; Measured, Three freeze-thaw cycles [2, 5]: 1965.30 ± 64.97 ng/mL; Measured, -80°C for 7 days [2, 6]: 34521.83 ± 3366.83 ng/mL; Measured, Autosampler for 12 h [2, 6]: 31375.83 ± 425.60 ng/mL; Measured, Room temperature for 4 h [2, 6]: 30814.68 ± 1603.40 ng/mL; Measured, Three freeze-thaw cycles [2, 6]: 32953.20 ± 2649.23 ng/mL"
